The subject of data set [1] is human neutrophils (PMNLs), 5-LOX product synthesis. The data set can be described thus: 5-LOX metabolite synthesis in human neutrophils stimulated with opsonized S. typhimurium (HPLC). It counts as cell-based. On the procedure: Figure 1 Effects of LRR11 and ODNs on the formation of LTB4 (A,B) and the sum of 5-LOX metabolites (ω-OH-LTB4, LTB4 and its isomers, and 5-HETE) (C) in human PMNLs. PMNLs (2 × 10^7) were incubated for 15 min at 37 °C without (black bars) or with 1 μM LRR11 (A, LRR11_first); then ODNs and LRR11 or LPS were added; various ways of adding ODN and LRR11 peptide are indicated. In control samples, Hanks’ solution was added instead of ODNs. After 20 min, 0.5 × 10^9 S. typhimurium bacterial cells were added for a further 15 min. The 5-LOX products were determined using HPLC. Values indicate mean ± SEM of five independent experiments performed in duplicate. * p < 0.05, ** p < 0.01, *** p < 0.005, compared with the control. # p < 0.05, ## p < 0.01 for pairs of data compared as indicated by two-way ANOVA followed by Tukey’s multiple comparison test.
Figure 3 Synthesis of the 5-LOX metabolites in PMNLs exposed to opsonized S. typhimurium bacteria in the presence of the RAGE antagonist FPS-ZM1. PMNLs (2 × 10^7) were incubated for 15 min at 37 °C without additives or with 0.15 µM FPS-ZM1, for the next 20 min the mixture was incubated with 1 µM ODNs without (black bars) or with 1 µM LRR11 (gray bars) before adding 5 × 10^8 S. typhimurium for 15 min. In control samples, Hanks’ solution was added instead of ODNs. The 5-LOX products were determined using HPLC. Graphical data are presented for LTB4 (A) or the sum of LTB4 and its isomers, ω-OH-LTB4 and 5-HETE, designed as Σ5LOX products (B).
Human neutrophils were isolated from freshly taken citrate-anticoagulated peripheral blood from healthy individuals using standard methods. Leukocyte-rich plasma was prepared by sedimentation of erythrocytes with 3% dextran T-500 at room temperature. For purification of granulocytes, centrifugation through Ficoll-Paque (density 1.077 g/mL) was used, followed by hypotonic lysis of the remaining erythrocytes. […] All methods were performed in accordance with the relevant instructions and regulations of the Ministry of Health of the Russian Federation and local legislation.
Bacteria (S. typhimurium IE 147 strain) obtained from the Collection of Gamaleya National Research Center of Epidemiology and Microbiology (Moscow, Russia) were grown in Luria–Bertani broth to a concentration of 1 × 10^9 colony-forming units (CFU)/mL. The bacteria were collected by centrifugation at 2000 g and opsonized immediately before the experiment for 30 min in 20% (v/v) fresh serum from the same donor whose blood was used to isolate neutrophils. Repeated centrifugation in Dulbecco’s solution was used to wash the bacteria.
The cell suspension (2 × 10^7 PMNLs in HBSS/HEPES, reaction volume of 6 mL) was cultured for 15 min in an incubator at 37 °C, 5% CO2. Then 1.0 µM ODN with or without 1.0 µM LRR11, or 2 µg/mL LPS, was added as indicated. After 20 min, the cells were stimulated with S. typhimurium (the ratio of bacteria to PMNLs was approximately 20:1) for the next 15 min [3]. The synthesis of 5-LOX metabolites was stopped by adding an equal volume of methanol at −20 °C with prostaglandin B2 as an internal standard. Samples were stored at −20 °C. The denatured cell suspension was centrifuged, and supernatants designated as water/methanol extracts.
(§1) To purify the water/methanol extracts, solid-phase extraction was used on Sep-Pak C18 cartridges (500 mg; Macherey-Nagel, Dueren, Germany), which were conditioned first with methanol, and then with water. Major 5-LOX metabolites were identified by comparing retention times with those of known compounds, as previously described.
Table S1. Effect of Chloroquine on 5-LOX product formation in PMNLs after ODN priming followed by the addition
of opsonized S. typhimurium bacteria.

Data set [2] concerns PMNLs, 5-LOX product formation. The data set can be described thus: 5-LOX product formation in PMNLs stimulated by calcium ionophore A23187. It counts as cell-based, human. Conditions: 1 µM A23187 alone for 10 min, after 30 min at 37 °C without inhibitor; mean ± SEM, three independent experiments. On the procedure:
Human neutrophils were isolated from freshly taken citrate-anticoagulated peripheral blood from healthy individuals using standard methods. Leukocyte-rich plasma was prepared by sedimentation of erythrocytes with 3% dextran T-500 at room temperature. For purification of granulocytes, centrifugation through Ficoll-Paque (density 1.077 g/mL) was used, followed by hypotonic lysis of the remaining erythrocytes. PMNLs were washed twice in PBS, resuspended at 10^7 cells/mL (96–97% purity, 98–99% viability) in Dulbecco’s PBS containing 1 mg/mL glucose (no CaCl2) and stored at room temperature. All methods were performed in accordance with the relevant instructions and regulations of the Ministry of Health of the Russian Federation and local legislation.
as §1

A further data set deals with 5′-biotinylated C-CpG. The data set can be described thus: TSM acoustic biosensor, peptide binding to immobilized C-CpG. Conditions: up to 100 nM URP, immobilized C-CpG; Figure 4A. The source says:
(§2) To characterize the interaction of the studied synthetic ODNs with the LRR11 peptide, we applied the thickness shear mode (TSM) acoustic biosensor method, which is based on the investigation of ultrasonic waves in piezoelectric materials such as AT-cut quartz. This approach involved immobilizing a 5′-biotinylated ODN on the surface of TSM transducer covered by NeutrAvidin and then adding the LRR11 peptide. An unrelated peptide (URP) with a random primary structure ([…]) was used as a negative control. The measurement procedure was divided into several steps, in which each immobilization stage was followed by washing with an appropriate buffer solution; when peptide solutions at different concentrations (from 1 to 100 nM) were added to the surface-modified TSM transducer, a wash with Hanks buffer was used before increasing the peptide concentration.
(§3) Based on Langmuir isotherm Equation (1), (1) Δfcc=Δfsmaxc/KD+c where Δfs(c) is the frequency change at a certain peptide concentration under equilibrium conditions, (Δfs)max is the maximum frequency change, c is the peptide concentration, and KD is the equilibrium constant of dissociation, we estimated the (Δfs)max and KD values for binding of the LRR11 peptide to C-CpG and B-CpG (Table 3).
Using Sauerbrey’s Equation (2), (2) Δf=−2f02Δm/Aμqρq where f0 is the fundamental resonance frequency (in our case 8 MHz), Δm is the change in mass (in grams) of the adsorbed layer on the crystal surface, A is the effective crystal area (in our case 0.2 cm^2), μq = 2.947 × 10^11 g × cm^−1s^−2 is the shear modulus of elasticity, and ρq = 2.648 g × cm^−3 is the crystal density, surface concentrations of NeutrAvidin, ODN and LRR11 peptide were estimated based on changes of resonance frequency (Figure 4). According to Equation (2), the surface density of molecules, σ (in molecules/cm^2), can be calculated as σ = ΔmNA/(A × Mw), where NA is Avogadro’s number (=6.023 × 10^23 mol^−1), and Mw represents the molecular weight of the corresponding compound (NeutrAvidin: 65 kDa, 5′-biotinylated C-CpG: 7115.4 Da, and LRR11: 3421 Da). Based on this approach, we obtained the following surface concentration values: 1.94 × 10^13 cm^−2 for NeutrAvidin, 3.37 × 10^13 cm^−2 for C-CpG and 2.4 × 10^13 cm^−2 for LRR11. The NeutrAvidin has four binding sites, two of which are available for biotinylated ODN binding. This is due to the fact that the other two sites are inaccessible due to NeutrAvidin chemisorption on the TSM surface. Thus, the number of available binding sites for the ODN is 3.88 × 10^13 cm^−2. […] Therefore, the surface of the TSM transducer is practically completely saturated by C-CpG. Estimation of the surface concentration of LRR11 evidences that at 50 nM concentration of this peptide, it occupies almost 70.6% of the ODN molecules. […]

For a further data set, the system named is NeutrAvidin. In words: TSM acoustic biosensor, unspecific binding to NeutrAvidin in the absence of ODNs.
Source text: as §2
(§4) Eight MHz AT-cut piezoelectric quartz crystal transducer was obtained from CH Instruments, Austin, TX, USA. The transducer was covered on both sides with thin layers of gold that served as electrodes (working area 0.2 cm^2). Prior ODNs immobilization, the crystal was carefully cleaned with basic Piranha solution (29% NH3, 30% H2O and H2O2 with volumetric 1:5:1 ratio, respectively) for 25 min. After the thorough cleaning, the crystal was positioned between two silicon O-rings in a flow-through cell. […]

In a further data set the test system is 5′-biotinylated B-CpG. The data set can be described thus: TSM acoustic biosensor, peptide binding to immobilized B-CpG. Conditions: URP, immobilized B-CpG.
Source text: as §2, §3
Eight MHz AT-cut piezoelectric quartz crystal transducer was obtained from CH Instruments, Austin, TX, USA. The transducer was covered on both sides with thin layers of gold that served as electrodes (working area 0.2 cm^2). Prior ODNs immobilization, the crystal was carefully cleaned with basic Piranha solution (29% NH3, 30% H2O and H2O2 with volumetric 1:5:1 ratio, respectively) for 25 min. After the thorough cleaning, the crystal was positioned between two silicon O-rings in a flow-through cell. The analyte was injected into the cell using a Genie Plus syringe pump (Kent Scientific, Torrington, CT, USA) at a flow rate of 50 μL/min. Each solution was applied until the resonance frequency stabilized. The surface of the transducer was first washed with deionized water, and then 125 μg/mL NeutrAvidin (WWR International GmbH, Vienna, Austria) solution in water was applied. Approximately 15 min were required to stabilize the signal at a constant NeutrAvidin flow rate. This was followed by washing with water to rinse out all non-chemisorbed NeutrAvidin molecules. Immobilization of ODN on the gold surface of the crystals is accomplished using avidin–biotin interactions. A 1 μM 5′-biotinylated ODN solution was injected over the neutravidin-modified surface and subsequently the crystal was washed again with water. The system was then equilibrated using Hanks buffer solution. This buffer was suitable for studying LRR11–ODN binding. Then LRR11 was used at concentrations of 1, 5, 10, 50 and 100 nM […] in Hanks buffer. After each addition of LRR11, the sensor surface was washed with Hanks buffer and LRR11 with the higher concentration was added. All binding experiments were carried out at room temperature. Buffer and sample solutions were introduced in a flow-through format. A network analyzer 8712ES (Agilent Technologies, Santa Clara, CA, USA) was used to measure the impedance properties of the sensor and determine fS and Rm.

Data set [3] deals with 5′-biotinylated G-rich ODN. The data set can be described thus: TSM acoustic biosensor, peptide binding to immobilized G-rich ODN. Conditions: URP, immobilized G-rich ODN.
Source text: as §2, §4

Oligonucleotides are written 5' to 3', each unit as a sugar letter and its base; * is a phosphorothioate linkage, no mark a phosphodiester; rarer units and linkages stand in square brackets, end groups in braces. Plain capitals give the bases only. d = 2'-deoxy (DNA)

In the case of “5′- ggGGACGACGTCGTGgggggg-3′ (DNA dG*dG*dGdGdAdCdGdAdCdGdTdCdGdTdGdG*dG*dG*dG*dG*dG) [A-CpG]”, the “effect on 5-LOX activity / leukotriene synthesis” value in data set [1] (ODN alone, 1 µM, 20 min, then opsonized S. typhimurium 15 min, Figure 1, five independent experiments in duplicate) is “did not significantly affect 5-LOX activity”. Also, the “Σ 5-LOX metabolites” value in data set [1] (Table S1, 2×10^7 PMNLs, 15 min at 37 °C without or with 5 µM Chloroquine, then ODN, after 20 min 0.5×10^9 opsonized S. typhimurium for 15 min, mean ± SEM, three independent experiments) turned out to be 18.4 ± 2.1 ng/107 PMNLs.

Turning to `CNc1ccc2oc(C[C@H]3O[C@@]4(CC[C@H]3C)O[C@H]([C@H](C)C(=O)c3ccc[nH]3)[C@H](C)C[C@H]4C)nc2c1C(=O)O` [A23187], the “Σ 5-LOX metabolites” value in data set [2] was 416 ± 37 ng/10^7 PMNLs.

For “LQTLDLRDNALTTIHFIPSIPD [URP, unrelated peptide with a random primary structure, negative control, reference compound]”, the “frequency reduction by URP” value with 5′-biotinylated C-CpG is listed as “no frequency reduction was occurred even after the addition of 100 nM URP”. For the same compound, the “unspecific binding to NeutrAvidin” value in the data set on NeutrAvidin is on record as “no unspecific biding”. In addition, the “interaction of URP with ODN” value is “absence of interactions between the URP and ODNs” with 5′-biotinylated B-CpG; “absence of interactions between the URP and ODNs” in data set [3].
